One experiment relates to Klebsiella pneumoniae 20. Description: Minimal inhibitory concentration (MIC) by agar streak, HI-agar, 37° C., 20 hours. To be noted: 10^6 viable cells per ml, 37° C. for 20 hours. The format is cell-based. Here is the method: (§1) One loopful of an overnight culture of each test strain in Trypticase-soy broth (10^6 viable cells per ml.) was streaked on heart infusion agar (HI-agar) containing graded concentrations of antibiotics, and the minimal inhibitory concentration (MIC) was expressed in terms of μg/ml after incubation at 37° C. for 20 hours.

Another experiment relates to Proteus mirabilis 18. Described as above. The format is cell-based. The note with it: 10^6 viable cells per ml, 37° C. for 20 hours. The method, then: as §1

SMILES strings stand for the structures. Values after ≈ are worked out from the molar mass of the structure shown.

From patent US4327093A, “3,7-Disubstituted-2 or 3-cephem-4-carboxylic acid compounds” (Fujisawa Pharmaceutical Co., Ltd., priority 1978, dated 1982) come the findings set out here.

The MIC is the least concentration at which growth counts as inhibited. High values mean a need for much substance, low ones inhibition by little substance. For `CO/N=C(\C(=O)NC1C(=O)N2C(C(=O)O)=C(COC(=O)N3CCN(C)CC3)CSC12)c1csc(N)n1` (stereo not shown) [(1)], the MIC against Klebsiella pneumoniae 20 turned out to be 0.1 µg/mL (≈ 0.185 µM); in the experiment with Proteus mirabilis 18, 0.05 µg/mL (≈ 0.0927 µM).
On the same counts, the results for `CO/N=C(\C(=O)NC1C(=O)N2C(C(=O)O)=C(COC(=O)N3CCN(C)CC3)CSC12)c1nsc(N)n1` (stereo not shown) [(2)] are 0.05 µg/mL (≈ 0.0925 µM) and 0.2 µg/mL (≈ 0.37 µM).
